Experimental data: ChEMBL document CHEMBL3244049, “Synthesis and antibacterial activity of 1-hydroxy-1-methyl-1,3-dihydrofuro[3,4-b]quinoxaline 4,9-dioxide and related compounds” (1979)
≈ marks a conversion by molar mass, not a printed value.

Assays:
Type in all cases: functional
Pasteurella multocida [1] = assay: Antibacterial activity against Pasteurella multocida infected in sc dosed mouse assessed as protection from infection compound administered 0.5 hrs, 4 and 24 hrs post inoculation; conditions: read-out: PD50
Pasteurella multocida [2] = assay: Antibacterial activity against Pasteurella multocida infected in po dosed mouse assessed as protection from infection compound administered 0.5 hrs, 4 and 24 hrs post inoculation; conditions: read-out: PD50
Salmonella enterica [3] = assay: Antibacterial activity against Salmonella choleraesuis infected in sc dosed mouse assessed as protection from infection compound administered 0.5 hrs, 4 and 24 hrs post inoculation; conditions: read-out: PD50
Salmonella enterica [4] = assay: Antibacterial activity against Salmonella choleraesuis infected in mouse assessed as protection from infection at 25 mg/kg, sc administered 0.5 hrs, 4 and 24 hrs post inoculation; conditions: route subcutaneous
Salmonella enterica [5] = assay: Antibacterial activity against Salmonella choleraesuis infected in mouse assessed as protection from infection at 25 mg/kg, po administered 0.5 hrs, 4 and 24 hrs post inoculation
Escherichia coli [6] = assay: Antibacterial activity against Escherichia coli infected in sc dosed mouse assessed as protection from infection compound administered 0.5 hrs, 4 and 24 hrs post inoculation; conditions: read-out: PD50
Escherichia coli [7] = assay: Antibacterial activity against Escherichia coli infected in po dosed mouse assessed as protection from infection compound administered 0.5 hrs, 4 and 24 hrs post inoculation; conditions: read-out: PD50
Salmonella enterica [8] = assay: Antibacterial activity against Salmonella choleraesuis infected in po dosed mouse assessed as protection from infection compound administered 0.5 hrs, 4 and 24 hrs post inoculation; conditions: read-out: PD50
Escherichia coli [9] = assay: Antibacterial activity against Escherichia coli
Salmonella enterica [10] = assay: Antibacterial activity against Salmonella choleraesuis
Pasteurella multocida [11] = assay: Antibacterial activity against Pasteurella multocida
Streptococcus pyogenes = assay: Antibacterial activity against Streptococcus pyogenes
[12] = test system: Brachyspira hyodysenteriae; assay: Antibacterial activity against Treponema hyodysenteriae after 72 hrs by dilution method

| Compound | ED50 (Pasteurella multocida [1]) [mg/kg] | ED50 (Pasteurella multocida [2]) [mg/kg] | ED50 (Salmonella enterica [3]) [mg/kg] | Activity (Salmonella enterica [4]) [%] | Activity (Salmonella enterica [5]) [%] | ED50 (Escherichia coli [6]) [mg/kg] | ED50 (Escherichia coli [7]) [mg/kg] | ED50 (Salmonella enterica [8]) [mg/kg] | MIC (Escherichia coli [9]) [µg/mL] | MIC (Salmonella enterica [10]) [µg/mL] | MIC (Pasteurella multocida [11]) [µg/mL] | MIC (Streptococcus pyogenes) [µg/mL] | MIC [12] [µg/mL] |
| --- | --- | --- | --- | --- | --- | --- | --- | --- | --- | --- | --- | --- | --- |
| CC1(O)OCc2c1[n+]([O-])c1ccccc1[n+]2[O-] (configuration not stated) | 8.1 | 11 | 4.4 | 100 | 100 | 13 | 14 | 6 |  |  |  |  |  |
| COC1(C)OCc2c1[n+]([O-])c1ccccc1[n+]2[O-] (configuration not stated) |  |  |  | 70 | 70 |  |  |  |  |  |  |  |  |
| CCOC1(C)OCc2c1[n+]([O-])c1ccccc1[n+]2[O-] (configuration not stated) |  |  |  | 50 | 70 |  |  |  |  |  |  |  |  |
| CC1(OCc2ccccc2)OCc2c1[n+]([O-])c1ccccc1[n+]2[O-] (configuration not stated) |  |  |  | 60 | 40 |  |  |  |  |  |  |  |  |
| COC(=O)N/N=C/c1c[n+]([O-])c2ccccc2[n+]1[O-] [CARBADOX] | 18 | 16 | 44 | 40 | 80 | 7 | 8.2 | 20 | 0.39 (≈ 1.49 µM) | 0.19 (≈ 0.725 µM) | 0.78 (≈ 2.97 µM) | 0.19 (≈ 0.725 µM) | 0.09 (≈ 0.343 µM) |
